Measured values taken from DBAASP.
≈ marks a conversion by molar mass, not a printed value. Where “and” joins values, the source holds several entries; their conditions need not be identical. Identical values can stand only once.

How the values were obtained:
Experiment in all cases: ≥ marks a high value that may be exact or a test limit, other limits are often not marked, values filed in µg/mL are converted to µM
[1] = tested on: Candida albicans ATCC 90028
[2] = tested on: Escherichia coli ATCC 25922
[3] = tested on: Staphylococcus aureus NCTC 8325
Bacillus subtilis = tested on: Bacillus subtilis
[4] = tested on: Escherichia coli DH5alpha
[5] = tested on: Klebsiella pneumoniae ATCC 13883
[6] = tested on: Staphylococcus aureus ATCC 25923
[7] = tested on: Pseudomonas aeruginosa PAO1
[8] = tested on: Staphylococcus aureus USA 300
Bacillus subtilis 168 = tested on: Bacillus subtilis 168
Micrococcus luteus = tested on: Micrococcus luteus
Staphylococcus aureus = tested on: Staphylococcus aureus
[9] = tested on: Acinetobacter baumannii ATCC 19606
[10] = tested on: Salmonella enterica subsp. enterica serovar Typhimurium ATCC 14028

SMILES	MIC [1] [µM]	MIC [2]	MIC [3] [µM]	MIC [5] [µM]	MIC [7]	MIC [8] [µM]	other results
CC[C@H](C)[C@@H]1NC(=O)[C@H](CCCCN)NC(=O)[C@@H](NC(=O)[C@H](C)NC(=O)[C@@H](NC(=O)[C@H](CC(C)C)NC(=O)[C@H](CC(=O)O)NC(=O)[C@@H](NC(=O)CNC(=O)[C@H](CC(C)C)NC(=O)[C@H](CCCCN)NC(=O)[C@@H](NC(=O)[C@H](CC(C)C)NC(=O)[C@H](CC(=O)O)NC(=O)[C@H](CCCCN)NC(=O)CNC(=O)[C@H](CC(C)C)NC(=O)CNC(=O)[C@H](CCCCN)NC(=O)[C@H](CO)NC(=O)[C@H](C)NC(=O)[C@H](Cc2ccccc2)NC(=O)[C@H](CCCCN)NC(=O)[C@H](C)NC(=O)[C@H](C)NC(=O)CNC(=O)[C@H](CCCN=C(N)N)NC(=O)[C@H](CC(C)C)NC(=O)[C@@H](NC(=O)[C@H](CO)NC(=O)[C@H](Cc2ccccc2)NC(=O)[C@H](CC(C)C)NC(=O)CN)[C@@H](C)CC)[C@@H](C)O)C(C)C)C(C)C)CSSC[C@@H](C(=O)O)NC(=O)[C@H](CCC(N)=O)NC(=O)[C@H](CCCCN)NC(=O)[C@H](CO)NC1=O [GLFSILRGAAKFASKGLGKDLTKLGVDLVACKISKQC]	29 (≈ 111 µg/mL)	1 µM (≈ 3.84 µg/mL)	1 (≈ 3.84 µg/mL)	–	–	–	–
CC[C@H](C)[C@@H]1NC(=O)CNC(=O)[C@H](Cc2c[nH]c3ccccc23)NC(=O)[C@@H]2CSSC[C@H](NC(=O)[C@H](C)N)C(=O)N[C@@H](CCC(N)=O)C(=O)N[C@@H](Cc3ccccc3)C(=O)N[C@@H](Cc3c[nH]c4ccccc34)C(=O)N[C@@H](CO)C(=O)N[C@H]3CSSC[C@H](NC(=O)[C@H](Cc4ccc(O)cc4)NC(=O)[C@H](CCCCN)NC(=O)[C@H](Cc4ccc(O)cc4)NC(=O)[C@H](CCC(N)=O)NC1=O)C(=O)N[C@@H](CCC(N)=O)C(=O)N[C@H](C(=O)N[C@@H](CCC(N)=O)C(=O)O)CSSC[C@H](NC(=O)[C@H](CO)NC(=O)[C@H](CO)NC(=O)[C@H](CC(N)=O)NC3=O)C(=O)N[C@@H]([C@@H](C)CC)C(=O)N[C@@H](CO)C(=O)N[C@@H](CCCN=C(N)N)C(=O)NCC(=O)N[C@@H](Cc1ccc(O)cc1)C(=O)N[C@@H](CCCN=C(N)N)C(=O)N[C@@H](CCC(N)=O)C(=O)NCC(=O)N[C@@H](Cc1ccc(O)cc1)C(=O)N2 [ACQFWSCNSSCISRGYRQGYCWGIQYKYCQCQ]	–	–	–	13.1 (≈ 49.9 µg/mL)	–	–	MIC (Bacillus subtilis): 13.1 µM (≈ 49.9 µg/mL); MIC [4]: 13.1 µM (≈ 49.9 µg/mL); MIC [6]: > 13.1 µM
CC[C@H](C)[C@@H]1NC(=O)[C@H](C)NC(=O)[C@@H](NC(=O)[C@H](Cc2ccccc2)NC(=O)[C@@H](NC(=O)[C@H](CCCCN)NC(=O)[C@@H]2CCCN2C(=O)[C@H](CC(C)C)NC(=O)[C@H](Cc2ccccc2)NC(=O)[C@H](CC(N)=O)NC(=O)[C@H](C)NC(=O)[C@H](C)NC(=O)[C@H](CC(C)C)NC(=O)CNC(=O)[C@H](C)NC(=O)[C@@H](NC(=O)[C@H](CC(C)C)NC(=O)[C@@H]2CCCN2C(=O)[C@H](CC(C)C)NC(=O)[C@@H](N)Cc2ccccc2)[C@@H](C)CC)[C@@H](C)CC)CSSC[C@@H](C(=O)O)NC(=O)[C@H](CCCCN)NC(=O)[C@H](CCCCN)NC(=O)[C@H]([C@@H](C)O)NC1=O [FLPLIAGLAANFLPKIFCAITKKC]	6 (≈ 15.5 µg/mL)	26 µM (≈ 67.4 µg/mL)	9 (≈ 23.3 µg/mL)	–	–	–	–
CC(C)C[C@H](NC(=O)[C@H](CC(C)C)NC(=O)[C@H](CCCCN)NC(=O)[C@H](CC(C)C)NC(=O)CNC(=O)[C@H](CC(C)C)NC(=O)[C@H](CO)NC(=O)[C@H](CC(C)C)NC(=O)[C@H](CC(C)C)NC(=O)[C@H](CC(C)C)NC(=O)[C@H](CO)NC(=O)[C@H](CC(C)C)NC(=O)[C@@H](N)CCCCN)C(N)=O [KLSLLLSLGLKLL]	–	> 25 µM	–	25 (≈ 35.2 µg/mL)	> 25 µM	1.6 (≈ 2.26 µg/mL)	–
CC[C@H](C)[C@H](NC(=O)[C@H](CCCCN)NC(=O)[C@H](CCC(N)=O)NC(=O)[C@@H](NC(=O)[C@@H](NC(=O)[C@H](CCCCN)NC(=O)[C@H](CCCN=C(N)N)NC(=O)[C@H](Cc1ccccc1)NC(=O)CN)[C@@H](C)CC)C(C)C)C(=O)N[C@@H](CCCN=C(N)N)C(=O)N[C@@H](CC(=O)O)C(=O)N[C@@H](Cc1ccccc1)C(=O)N[C@@H](CC(C)C)C(=O)N[C@@H](CCCN=C(N)N)C(=O)N[C@@H](CC(N)=O)C(=O)N[C@@H](CC(C)C)C(=O)N[C@H](C(N)=O)C(C)C [GFRKIVQKIRDFLRNLV]	–	4.4 µM (≈ 9.25 µg/mL)	–	3.1 (≈ 6.51 µg/mL)	> 50 µM	3.1 (≈ 6.51 µg/mL)	–
CC(C)C[C@H](NC(=O)[C@H](C)NC(=O)[C@H](CCCCN)NC(=O)CNC(=O)[C@H](CC(C)C)NC(=O)[C@H](CC(C)C)NC(=O)[C@H](CO)NC(=O)[C@H](CC(C)C)NC(=O)[C@H](CC(C)C)NC(=O)[C@H](CO)NC(=O)[C@H](CC(C)C)NC(=O)[C@H](CC(C)C)NC(=O)CN)C(N)=O [GLLSLLSLLGKAL]	–	3.1 µM (≈ 4.02 µg/mL)	–	3.1 (≈ 4.02 µg/mL)	> 25 µM	0.78 (≈ 1.01 µg/mL)	–
CC[C@H](C)[C@H](NC(=O)[C@H](Cc1ccccc1)NC(=O)[C@H](CCCCN)NC(=O)[C@H](CCCCN)NC(=O)[C@H](CCC(=O)O)NC(=O)[C@H](CC(N)=O)NC(=O)[C@H](Cc1ccc(O)cc1)NC(=O)[C@H](CCCCN)NC(=O)[C@H](CC(N)=O)NC(=O)[C@H](CC(C)C)NC(=O)[C@H](CCC(=O)O)NC(=O)[C@H](CC(N)=O)NC(=O)[C@H](CC(C)C)NC(=O)[C@H](Cc1ccccc1)NC(=O)[C@H](CO)NC(=O)[C@@H](N)[C@@H](C)O)C(=O)O [TSFLNELNKYNEKKFI]	–	31.4 µM (≈ 62.5 µg/mL)	–	–	–	–	MIC (Bacillus subtilis 168): 15.7 µM (≈ 31.2 µg/mL); MIC (Micrococcus luteus): 31.4 µM (≈ 62.5 µg/mL); MIC (Staphylococcus aureus): 4.17 µM (≈ 8.3 µg/mL)
CC(C)C[C@H](NC(=O)[C@H](CC(C)C)NC(=O)[C@H](CCCCN)NC(=O)CNC(=O)[C@H](CC(C)C)NC(=O)[C@H](CC(C)C)NC(=O)[C@H](CO)NC(=O)[C@H](CC(C)C)NC(=O)[C@H](C)NC(=O)[C@H](CO)NC(=O)[C@H](CC(C)C)NC(=O)[C@H](CC(C)C)NC(=O)CN)C(N)=O [GLLSALSLLGKLL]	–	3.1 µM (≈ 4.02 µg/mL)	–	3.1 (≈ 4.02 µg/mL)	> 25 µM	0.78 (≈ 1.01 µg/mL)	–
CC[C@H](C)[C@@H]1NC(=O)[C@H](CC(C)C)NC(=O)[C@@H](NC(=O)[C@H](CC(C)C)NC(=O)[C@H](CC(C)C)NC(=O)[C@H](CCCCN)NC(=O)[C@@H]2CCCN2C(=O)CNC(=O)[C@H](CC(C)C)NC(=O)[C@@H](NC(=O)[C@H](C)NC(=O)[C@H](C)NC(=O)[C@H](CC(C)C)NC(=O)[C@H](CO)NC(=O)[C@H](C)NC(=O)[C@H](CC(C)C)NC(=O)[C@@H](NC(=O)[C@@H]2CCCN2C(=O)[C@H](CC(C)C)NC(=O)[C@@H](N)Cc2ccccc2)[C@@H](C)CC)[C@@H](C)O)CSSC[C@@H](C(=O)O)NC(=O)[C@H](CCCCN)NC(=O)[C@H](CCCCN)NC(=O)[C@H]([C@@H](C)O)NC1=O [FLPILASLAATLGPKLLCLITKKC]	≥ 35	–	8 (≈ 20.2 µg/mL)	–	–	–	–
CC[C@H](C)[C@H](NC(=O)[C@H](CCCCN)NC(=O)[C@@H]1CCCN1C(=O)[C@H](CC(C)C)NC(=O)[C@H](Cc1ccccc1)NC(=O)[C@H](CC(N)=O)NC(=O)[C@H](C)NC(=O)[C@H](C)NC(=O)[C@H](CC(C)C)NC(=O)CNC(=O)[C@H](C)NC(=O)[C@H](CC(C)C)NC(=O)[C@H](CC(C)C)NC(=O)[C@@H]1CCCN1C(=O)[C@H](CC(C)C)NC(=O)[C@@H](N)Cc1ccccc1)C(=O)N[C@@H](Cc1ccccc1)C(=O)N[C@H]1CSSC[C@@H](C(=O)O)NC(=O)[C@H](CCCCN)NC(=O)[C@H](CCCCN)NC(=O)[C@H]([C@@H](C)O)NC(=O)[C@H]([C@@H](C)CC)NC(=O)[C@H](CCCCN)NC1=O [FLPLLAGLAANFLPKIFCKITKKC]	–	25 µM (≈ 66.2 µg/mL)	12.5 (≈ 33.1 µg/mL)	–	–	–	–
CC[C@H](C)[C@H](NC(=O)[C@H](C)NC(=O)[C@@H]1CCCN1C(=O)[C@H](CC(C)C)NC(=O)[C@@H](N)Cc1ccccc1)C(=O)N[C@@H](C)C(=O)NCC(=O)N[C@H](C(=O)N[C@@H](C)C(=O)N[C@@H](C)C(=O)N[C@@H](CCCCN)C(=O)N[C@@H](Cc1ccccc1)C(=O)N[C@@H](CC(C)C)C(=O)N1CCC[C@H]1C(=O)N[C@@H](CCCCN)C(=O)N[C@H](C(=O)N[C@@H](Cc1ccccc1)C(=O)N[C@H]1CSSC[C@@H](C(=O)O)NC(=O)[C@H](CCCCN)NC(=O)[C@H](CCCCN)NC(=O)[C@H](CO)NC(=O)[C@H]([C@@H](C)CC)NC(=O)[C@H](C)NC1=O)[C@@H](C)CC)C(C)C [FLPAIAGVAAKFLPKIFCAISKKC]	7 (≈ 17.7 µg/mL)	7 µM (≈ 17.7 µg/mL)	3 (≈ 7.61 µg/mL)	–	–	–	–
CC(C)C[C@H](NC(=O)[C@H](CCCCN)NC(=O)[C@H](CCCCN)NC(=O)[C@H](C)NC(=O)[C@H](Cc1c[nH]c2ccccc12)NC(=O)CNC(=O)[C@H](CCCCN)NC(=O)[C@@H](N)CCCCN)C(=O)N[C@@H](C)C(=O)N[C@@H](Cc1ccccc1)C(=O)N[C@@H](C)C(=O)N[C@@H](Cc1ccccc1)C(=O)NCC(=O)N[C@@H](CCCCN)C(=O)N[C@@H](CCCCN)C(=O)O [KKGWAKKLAFAFGKK]	–	7.3 µM and 8.9 µM	–	30 (≈ 51.2 µg/mL)	20.7 µM and 23.7 µM	–	MIC [9]: > 30 µM; MIC [10]: 22.2 µM (≈ 37.9 µg/mL); MIC [6]: > 30 µM
